The test system of one test is sensitised guinea pig. Kind of test: allergen (ovalbumin)-induced bronchoconstriction in vivo of sensitised guinea pig (allergic asthma of guinea pig). The following applies: for tolerance of additional/successive ovalbumin injections: pretreated animals, two additional (three successive) injections of 40 μg ovalbumin. An excerpt: These pharmacological properties were largely verified by measuring methods which were, basically, known from the literature. They were, however, applied in a modified form. […] 63, 1 (1979); M. W. Schneider and J. M. Drazen, Amer. Rev. Resp. Dis. 121, 835 (1980); S. S. Yen and W. Kreutner, Agents Actions 10, 174 (1980); S. S. Yen, Prostaglandins 22, 183 (1981); Adcock, J. J.; Garland, L. G.; Brit. J. Pharmacol. 69, 167 (1980); W. Diamantis, J. L. Melton; D. Sofia et al., Europ. J. Pharmacol. 56, 407 (1979); P. Anderson, Brit. J. Pharmacol. 77, 301 (1982)].
It was, remarkably, observed that all control animals died of apnoea after one single intraperitoneal application of ovalbumin (40 μg/kg body weight), following protracted and extremely severe asthmatic reaction (anaphylactic shock?).
Action on allergen-induced bronchoconstriction in vivo of sensitised guinea pig ("allergic asthma of guinea pig"):
This test was applied to male guinea pigs, 30 to 35 days from sensitisation, using 330 mg of aluminium hydroxide and 33 μg of ovalbuminper one kilogram of body weight (fresh preparation in physiological sodium chloride solution).
(Method was modified according to P. Anderson, Brit. J. Pharmacol. 77, 301 (1982).) The animals were anaesthetised by intraperitoneal application of 1.3 g/kg body weight of urethane, while 2 mg/kg body weight of Pavulon® were intravenously injected for muscular relaxation. Intravenous injection of 40 μg of ovalbumin triggered off the allergen-induced bronchoconstriction which developed to the full scale of anaphylactic shock in all control animals, within few seconds. The animals, tracheostomised and with venous catheters, were artificially ventilated at rhythmic negative pressure in a tank respirator (f=16 min^-1; inspiration:expiration=1:1). Gas flow(V), breathing volume (VT), and ECG were checked in the course of pneumotachography. The animals had been pretreated by two intraperitoneal injections of finely crushed 5-methyl-2-hydroxylaurophenone-oxime, suspended in agar-agar. […]

Test [1] concerns trachea isolated from guinea pig. Description: carbachol-induced contraction of trachea isolated from guinea pig. To be noted: spasm by 3.9 μM carbachol; clearly detectable even at 50 μM of active substance. As for the experimental part:
Action of 5-methyl-2-hydroxy-laurophenone-oxime on carbachol-induced contraction of trachea isolated from guinea pig:
The compound was checked for anti-asthmatic activity by means of measuring methods well established and known from the literature (cf p. 5) but modified for the purpose of this invention, using a tracheal spiral isolated from guinea pig. Measurements were conducted in thermostat-controlled organ bath in isotonic condition, using a contraction gauge with lever-type sensor, measuring coil, and measuring amplifier (inductive measurement by means of high-frequency oscillating circuit). Air was used for gassing. The suspension solution was of the following composition: 39.46 g of sodium chloride, 2.2 g of potassium chloride, 6.07 g of tris, 1.0 g of calcium chloride, 9.9 g of glucose, 1.0 ml of saturated magnesium chloride solution, 43 ml 1N hydrochloric acid per 5 l, pH 7.4.
Spasm was induced by 3.9 μM of carbachol.

The next test deals with rat's paw. Kind of test: carrageenin-induced oedema of rat's paw. Type of test: in vivo. The following applies: 50 mg/kg i.p. An excerpt: This method is an adequate model of asthma bronchiale forms in experimental animals with involvement of IgE-dependent and IgG-dependent allergic reactions /R. Andersson, Brit. J. Pharmacol. 77, 301 (1982)/. The conclusion was, therefore, drawn that the comounds of general Formula I, according to this invention, should, as well, have clearly pronounced antiphlogistic properties. That conclusion was positively verified in vivo by an appropriate inflammatory model in the context of an animal experiment, using carragheenin--induced oedema of rat's paw. The experimental model was handled according to a method proposed by Winter and co-workers /C. A. Winter, E. A. Risley, and G. W. Nuss, Proc. Soc. Exp. Biol. Med. 111, 544 (1962)/ (cf. Example 19).
Inhibition of carrageenin-induced oedema of rat's paw:
Testing is conducted by methods common in international practice /C.A. Winter, E. A. Risley and G. W. Nuss, Proc. Soc. Exp. Biol. Med. 111, 544 (1962)/. Ten rats received intraperitoneal injections of 50 mg/kg body weight of 5-methyl-2-hydroxy-laurophenone-oxime in parallel with 0.1 ml of 0.1-per-cent carrageenin solution (per animal). The development of paw oedema was measured in one-hour intervals, following application, and compared with manifestations in a control group.

As for `CCCCCCCCCCCC(=NO)c1cc(C)ccc1O` [5-methyl-2-hydroxy-laurophenone-oxime], in the test on sensitised guinea pig (2 x 10 mg/kg i.p., 90 and 60 minutes prior, 40 μg ovalbumin i.v., all probands), the “inhibition of ovalbumin-induced asthma reaction” value is recorded as “Complete inhibition”. Further, the “tolerance of additional/successive ovalbumin injections” value in the test with sensitised guinea pig was “tolerated without reaction”; in the test on sensitised guinea pig (listed as 5-methyl-2-hydroxyl-laurophenone-oxime) it was “tolerated without any sign of bronchoconstriction”. Moreover, the “dilatation after carbachol-induced spasm” value in test [1] is on record as “strong dilatation”. For the same compound, the “Inhibition of carrageenin-induced oedema” value with rat's paw (0.5 hr, + significant, P < 0.05) came out at 43%; in the test on rat's paw (1 hr, + significant, P < 0.05), 47%; with rat's paw (2 hr, + significant, P < 0.05) it was 34%; with rat's paw (3 hr, + significant, P < 0.05), 34%; with rat's paw (4 hr, not marked significant), 31%; with rat's paw (5 hr, not marked significant) it was 29%.

(Values after patent US4816487A, “1-(2-hydroxyaryl)-alkane-1-on-oximes-procedure of preparation and use in pharmaceuticals” (Humboldt-Universitaet zu Berlin, priority 1985, dated 1989).)
